Results as given in the NIST ThermoML archive (doi:10.1016/j.jct.2018.08.035).
Numbers after ± are expanded uncertainties.

Assay: xn = mol fraction of the nth substance listed
Settings: 100 kPa, Liquid, Vibrating tube method

CCC(O)CC [3-pentanol] + C[N+](=O)[O-]
Settings | mass density [kg/m3]
286.95 K, x1 = 0.629 | 904.586 ± 2
287.05 K, x1 = 0.629 | 904.424 ± 2
287.15 K, x1 = 0.629 | 904.324 ± 2
287.25 K, x1 = 0.629 | 904.302 ± 2
287.35 K, x1 = 0.629 | 904.234 ± 2
287.45 K, x1 = 0.629 | 904.174 ± 2
287.55 K, x1 = 0.629 | 904.105 ± 2
287.66 K, x1 = 0.629 | 904.02 ± 2
287.75 K, x1 = 0.629 | 903.747 ± 2.1
287.86 K, x1 = 0.629 | 903.73 ± 2.1
287.96 K, x1 = 0.629 | 903.653 ± 2.1
288.06 K, x1 = 0.629 | 903.559 ± 2.1
288.16 K, x1 = 0.629 | 903.339 ± 2.2
288.26 K, x1 = 0.629 | 903.249 ± 2.2
288.36 K, x1 = 0.629 | 903.208 ± 2.2
288.46 K, x1 = 0.629 | 903.194 ± 2.2
288.56 K, x1 = 0.629 | 903.023 ± 2.2
288.66 K, x1 = 0.629 | 902.916 ± 2.3
288.75 K, x1 = 0.629 | 902.883 ± 2.3
288.86 K, x1 = 0.629 | 902.656 ± 2.3
288.95 K, x1 = 0.629 | 902.639 ± 2.2
289.06 K, x1 = 0.629 | 902.563 ± 2.2
289.15 K, x1 = 0.246 | 1016.83 ± 2.1
289.15 K, x1 = 0.266 | 1014.93 ± 2.1
289.15 K, x1 = 0.275 | 1013.85 ± 2.1
289.15 K, x1 = 0.3 | 1007.8 ± 2.1
289.15 K, x1 = 0.325 | 1002.84 ± 2.1
289.15 K, x1 = 0.338 | 1001.68 ± 2.1
289.15 K, x1 = 0.363 | 999.874 ± 2.1
289.15 K, x1 = 0.382 | 999.889 ± 2.1
289.15 K, x1 = 0.407 | 999.35 ± 2.1
289.15 K, x1 = 0.486 | 980.562 ± 2.1
289.15 K, x1 = 0.488 | 978.895 ± 2.1
289.15 K, x1 = 0.546 | 955.829 ± 2.2
289.15 K, x1 = 0.573 | 937.786 ± 2.3
289.15 K, x1 = 0.615 | 911.044 ± 2.2
289.15 K, x1 = 0.629 | 902.484 ± 2.2
289.16 K, x1 = 0.587 | 928.424 ± 2.5
289.25 K, x1 = 0.246 | 1015.69 ± 2.1
289.25 K, x1 = 0.266 | 1014.12 ± 2.1
289.25 K, x1 = 0.275 | 1013.22 ± 2.1
289.25 K, x1 = 0.3 | 1007.17 ± 2.1
289.25 K, x1 = 0.325 | 1002.28 ± 2.1
289.25 K, x1 = 0.338 | 1000.75 ± 2.1
289.25 K, x1 = 0.363 | 998.168 ± 2.1
289.25 K, x1 = 0.382 | 998.358 ± 2.1
289.25 K, x1 = 0.407 | 997.887 ± 2.1
289.25 K, x1 = 0.414 | 998.161 ± 2.1
289.25 K, x1 = 0.486 | 979.734 ± 2.1
289.25 K, x1 = 0.488 | 978.223 ± 2.1
289.25 K, x1 = 0.546 | 953.328 ± 2.2
289.25 K, x1 = 0.573 | 937.432 ± 2.4
289.25 K, x1 = 0.587 | 924.098 ± 2.3
289.25 K, x1 = 0.629 | 902.36 ± 2.2
289.26 K, x1 = 0.615 | 910.892 ± 2.1
289.35 K, x1 = 0.3 | 1006.58 ± 2.1
289.35 K, x1 = 0.338 | 999.725 ± 2.1
289.36 K, x1 = 0.246 | 1014.41 ± 2.1
289.36 K, x1 = 0.266 | 1013.24 ± 2.1
289.36 K, x1 = 0.275 | 1012.41 ± 2.1
289.36 K, x1 = 0.325 | 1001.72 ± 2.1
289.36 K, x1 = 0.363 | 996.975 ± 2
289.36 K, x1 = 0.382 | 996.614 ± 2.1
289.36 K, x1 = 0.407 | 996.236 ± 2
289.36 K, x1 = 0.414 | 996.775 ± 2.1
289.36 K, x1 = 0.486 | 978.988 ± 2.1
289.36 K, x1 = 0.488 | 977.267 ± 2.1
289.36 K, x1 = 0.546 | 952.752 ± 2.2
289.36 K, x1 = 0.573 | 936.899 ± 2.4
289.36 K, x1 = 0.587 | 923.859 ± 2.3
289.36 K, x1 = 0.615 | 909.942 ± 2.3
289.36 K, x1 = 0.629 | 902.109 ± 2.2
289.45 K, x1 = 0.246 | 1013.13 ± 2.1
289.45 K, x1 = 0.266 | 1012.22 ± 2.1
289.45 K, x1 = 0.275 | 1011.52 ± 2.1
289.45 K, x1 = 0.3 | 1005.82 ± 2.1
289.45 K, x1 = 0.325 | 1001.04 ± 2.1
289.45 K, x1 = 0.338 | 998.278 ± 2
